This note sets out measurements from patent publication US6444705B1, “Angiogenesis inhibitors” (Santen Pharmaceutical Co., Ltd., priority 1998, dated 2002).

Structures can show the parent of a compound that is named as a salt.

The assay has as its system chick chorioallantonic membrane. Put plainly: Inhibitory effect on angiogenesis in the chick chorioallantonic membrane. The format is in vivo, chick (white leghorn). Conditions: pellet on embryo chorioallantonic membrane, cultured two days, rate = positive eggs/tested eggs x100. As for the experimental part:
It was reported that effects of drugs on angiogenesis were evaluated using fertilized egg embryo chorioallantonic membrane as an in vivo angiogenesis evaluation model (Biochem. Biophys. Res. Commun., 174, 1070-1076 (1991)). Accordingly, effects of a cysteine derivative on the angiogenesis evaluation model were studied according to the assay described in the above-mentioned literature.
1. Methyl cellulose (0.1 g) is dissolved in sterile purified water (10 ml) to prepare a 1% solution of methyl cellulose.
2. A test compound is dissolved in ethanol/sterile purified water (1/1) to prepare a 24 μmol/ml solution.
3. The 24 μmol/ml solution of the test compound is diluted with ethanol/sterile purified water (1/1) to prepare 12 μmol/ml and 6 μmol/ml solutions of the test compound.
4. The solution (0.20 ml) of the test compound having each concentration is mixed with the 1% solution (0.20 ml) of methyl cellulose to prepare a mixed solution of the test compound.
5. […]
Hatched eggs (white leghorn) of three days old after fertilization were put up by threes on a culture plate having six wells with their air phases upward and incubated in a CO2 incubator for 20 minutes (temperature: 37° C., humidity: 95%, CO2 concentration: 5%). […] Hatched eggs in which angiogenesis was not observed were defined as positive, and inhibition rates of angiogenesis were calculated by the following equation.

In the case of `CC(C)(CS)C(=O)NC(CS)C(=O)NCCCCCCN` (stereo in doubt) [N^1-(6-aminohexyl)-N^2-(2,2-dimethyl-3-mercaptopropionyl)-L-cysteinamide hydrochloride], the “Inhibition rate of angiogenesis (%)” value is, setting by setting: (dose 0.06 μmol/egg) 80%; (dose 0.12 μmol/egg) 93%.
